Assay results taken from ChEMBL document CHEMBL1201862, “PubChem BioAssay data set” (2004).
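Test compounds were applied to cells in 96-well plates for 48 hours at 5 doses. At the GI50, growth is halved.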 The source made the active and inactive calls. Rule as the data show it: active = GI50 up to about 1.1 µM and inactive = higher.

Columns and labels:
Assay in all cases: NCI-60 cell line screen, 48 h
MOLT-4 = tested on: MOLT-4
UACC-62 = tested on: UACC-62
HCC 2998 = tested on: HCC 2998
OVCAR-5 = tested on: OVCAR-5
HCT-15 = tested on: HCT-15
UACC-257 = tested on: UACC-257
KM12 = tested on: KM12
SNB-78 = tested on: SNB-78
HT-29 = tested on: HT-29
NCI-H23 = tested on: NCI-H23
SR = tested on: SR
HOP-18 = tested on: HOP-18
SK-MEL-2 = tested on: SK-MEL-2
OVCAR-8 = tested on: OVCAR-8
DMS-273 = tested on: DMS-273
RXF 393 = tested on: RXF 393
HL-60 = tested on: HL-60
SN12C = tested on: SN12C
CCRF-CEM = tested on: CCRF-CEM
UO-31 = tested on: UO-31
NCI-H226 = tested on: NCI-H226
SK-MEL-28 = tested on: SK-MEL-28
SNB-19 = tested on: SNB-19
ACHN = tested on: ACHN
EKVX = tested on: EKVX
LXFL 529 = tested on: LXFL 529
HOP-62 = tested on: HOP-62
K562 = tested on: K562
SK-MEL-5 = tested on: SK-MEL-5
M19-MEL = tested on: M19-MEL
NCI-H460 = tested on: NCI-H460
IGROV-1 = tested on: IGROV-1
HOP-92 = tested on: HOP-92
SF-268 = tested on: SF-268
KM-20L2 = tested on: KM-20L2
LOX IMVI = tested on: LOX IMVI
COLO 205 = tested on: COLO 205
SW-620 = tested on: SW-620
HCT-116 = tested on: HCT-116
M14 = tested on: M14
DMS-114 = tested on: DMS-114
OVCAR-4 = tested on: OVCAR-4
RPMI-8226 = tested on: RPMI-8226
U-251 = tested on: U-251
SF-539 = tested on: SF-539
A549 = tested on: A549
OVCAR-3 = tested on: OVCAR-3
TK-10 = tested on: TK-10
SNB-75 = tested on: SNB-75

COc1cc(C2C(=O)C(Cl)N2Nc2nc(C)cc(O)n2)cc(OC)c1OC (centres undefined)
GI50 (MOLT-4): 10.6 µM (inactive)
GI50 (UACC-62): > 10 µM (inactive)
GI50 (HCC 2998): 12.9 µM (inactive)
GI50 (OVCAR-5): 33 µM (inactive)
GI50 (HCT-15): 11.5 µM
GI50 (UACC-257): 22.5 µM (inactive)
GI50 (KM12): 19 µM (inactive)
GI50 (SNB-78): 12.4 µM (inactive)
GI50 (HT-29): 23.8 µM (inactive)
GI50 (NCI-H23): 15.4 µM (inactive)
GI50 (SR): 11.6 µM (inactive)
GI50 (HOP-18): 2.67 µM (inactive)
GI50 (SK-MEL-2): 11.2 µM (inactive)
GI50 (OVCAR-8): 17.1 µM (inactive)
GI50 (DMS-273): 10.4 µM (inactive)
GI50 (RXF 393): 12.3 µM (inactive)
GI50 (HL-60): 9.84 µM (inactive)
GI50 (SN12C): 14.7 µM (inactive)
GI50 (CCRF-CEM): < 0.01 µM (active)
GI50 (UO-31): 13.4 µM (inactive)
GI50 (NCI-H226): 22.1 µM (inactive)
GI50 (SK-MEL-28): 17 µM (inactive)
GI50 (SNB-19): 30.4 µM (inactive)
GI50 (ACHN): 11.1 µM (inactive)
GI50 (EKVX): 33.3 µM (inactive)
GI50 (LXFL 529): 12.9 µM (inactive)
GI50 (HOP-62): 7.21 µM (inactive)
GI50 (K562): 9.55 µM (inactive)
GI50 (SK-MEL-5): 12.9 µM (inactive)
GI50 (M19-MEL): 18.7 µM (inactive)
GI50 (NCI-H460): 9.35 µM (inactive)
GI50 (IGROV-1): 10.1 µM (inactive)
GI50 (HOP-92): 16.9 µM (inactive)
GI50 (SF-268): 7.01 µM (inactive)
GI50 (KM-20L2): 22.6 µM (inactive)
GI50 (LOX IMVI): 10.5 µM (inactive)
GI50 (COLO 205): > 10 µM (inactive)
GI50 (SW-620): 22.2 µM (inactive)
GI50 (HCT-116): 16.2 µM (inactive)
GI50 (M14): 12.5 µM (inactive)
GI50 (DMS-114): 8.67 µM (inactive)
GI50 (OVCAR-4): 16.1 µM (inactive)
GI50 (RPMI-8226): > 10 µM (inactive)
GI50 (U-251): 13.3 µM (inactive)
GI50 (SF-539): 13.5 µM (inactive)
GI50 (A549): 27.9 µM (inactive)
GI50 (OVCAR-3): 4.91 µM (inactive)
GI50 (TK-10): 24.3 µM (inactive)
GI50 (SNB-75): 2.33 µM (inactive)
